Measured values: patent US10780090B2, “Heteroaryl compounds useful as inhibitors of SUMO activating enzyme” (Millennium Pharmaceuticals, Inc., priority 2014, dated 2020)
Like-named read-outs stand apart in the source and are kept apart here.

Molecular target: recombinant human SAE enzyme (Homo sapiens (Human), UniProt Q9UBT2)
Test: SAE HTRF enzyme assay
Assay type: biochemical
Conditions: for inhibition at 0.111 µM: read-out: Percent Inhibition
Procedure, shortened: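 Human SAE (0.11 nM) with 0.5 μM ATP, 0.125 μM Sumo-Flag and 0.01 μM Ubc9-GST in HEPES pH 7.5, 5 mM MgCl2, 250 μM GSH; 105 min at 24 °C. Stopped with EDTA; HTRF read after 2 h with Eu-anti-Flag and APC-anti-GST. Percent inhibition or IC50 reported.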

[1] = SAE inhibition at compound concentration 0.111 μM
[2] = SAE inhibition, class symbols, legend in nM

Sequence of recombinant human SAE enzyme (Q9UBT2 whole entry): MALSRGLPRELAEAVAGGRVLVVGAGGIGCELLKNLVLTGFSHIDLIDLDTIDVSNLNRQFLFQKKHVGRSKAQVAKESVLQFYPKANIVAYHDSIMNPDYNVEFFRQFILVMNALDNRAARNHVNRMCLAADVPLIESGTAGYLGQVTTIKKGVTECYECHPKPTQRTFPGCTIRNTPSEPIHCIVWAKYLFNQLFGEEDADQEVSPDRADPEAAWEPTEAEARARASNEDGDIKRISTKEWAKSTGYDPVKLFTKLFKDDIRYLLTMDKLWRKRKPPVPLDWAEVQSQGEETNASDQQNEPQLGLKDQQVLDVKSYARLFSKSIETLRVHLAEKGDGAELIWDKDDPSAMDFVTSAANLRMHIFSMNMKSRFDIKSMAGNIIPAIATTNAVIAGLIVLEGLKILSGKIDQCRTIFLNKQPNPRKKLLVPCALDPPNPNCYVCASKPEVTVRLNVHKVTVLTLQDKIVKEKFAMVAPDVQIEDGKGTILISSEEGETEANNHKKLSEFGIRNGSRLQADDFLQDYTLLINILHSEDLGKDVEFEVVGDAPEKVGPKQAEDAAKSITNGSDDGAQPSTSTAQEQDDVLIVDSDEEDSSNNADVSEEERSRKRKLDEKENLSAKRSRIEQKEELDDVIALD
Sequence of recombinant human SAE enzyme (Q9UBE0 whole entry partner): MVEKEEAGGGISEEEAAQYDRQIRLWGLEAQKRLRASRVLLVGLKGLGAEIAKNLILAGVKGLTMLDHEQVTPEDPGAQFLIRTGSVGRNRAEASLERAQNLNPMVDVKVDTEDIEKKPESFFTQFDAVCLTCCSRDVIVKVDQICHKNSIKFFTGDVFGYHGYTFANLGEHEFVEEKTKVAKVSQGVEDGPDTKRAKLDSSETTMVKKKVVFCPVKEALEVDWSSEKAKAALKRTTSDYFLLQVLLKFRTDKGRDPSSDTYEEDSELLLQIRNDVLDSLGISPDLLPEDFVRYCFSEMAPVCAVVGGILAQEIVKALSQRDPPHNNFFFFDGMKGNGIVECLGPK

SMILES	inhibition at 0.111 µM (Concentration 0.111 μM) [%]	IC50 (class symbols A/B/C) [nM]	further results
COCc1cc(C(=O)c2cncnc2N[C@@H]2C[C@H](COS(N)(=O)=O)[C@@H](O)C2)sc1Cl [I-218, {(1R,2S,4R)-4-[(5-{[5-Chloro-4-(methoxymethyl)-2-thienyl]carbonyl}pyrimidin-4-yl)amino]-2-hydroxycyclopentyl}methyl sulfamate]	33	100 to 1000	–
Cc1sc(C(=O)c2cncnc2N[C@@H]2C[C@H](COS(N)(=O)=O)[C@@H](OC(=O)Cc3ccc(OP(=O)(O)O)cc3)C2)cc1[C@@H]1OCCc2ccc(Cl)cc21 [I-364, [(1S,2R,4R)-4-[[5-[4-[(1R)-7-chloroisochroman-1-yl]-5-methyl-thiophene-2-carbonyl]pyrimidin-4-yl]amino]-2-(sulfamoyloxymethyl)cyclopentyl] 2-(4-phosphonooxyphenyl)acetate]	–	–	inhibition at 0.111 µM [1]: 13%
NS(=O)(=O)OC[C@H]1C[C@@H](Nc2ncncc2C(=O)c2cc(Cc3ccccc3)cs2)C[C@@H]1O [I-88, [(1R,2S,4R)-4-({5-[(4-benzyl-2-thienyl)carbonyl]pyrimidin-4-yl}amino)-2-hydroxycyclopentyl]methyl sulfamate]	98	< 10	–
NS(=O)(=O)OC[C@H]1C[C@@H](Nc2ncncc2C(=O)c2cc(Cc3ccc(Cl)cc3)cs2)C[C@@H]1O [I-157, {(1R,2S,4R)-4-[(5-{[4-(4-chlorobenzyl)-2-thienyl]carbonyl}pyrimidin-4-yl)amino]-2-hydroxycyclopentyl}methyl sulfamate]	92	–	–
CC(O)(c1cccc(Br)c1)c1csc(C(=O)c2cncnc2N[C@@H]2C[C@H](COS(N)(=O)=O)[C@@H](O)C2)c1 (single isomer, unassigned) [I-3b, [(1R,2S,4R)-4-{[5-({4-[(1R)-1-(3-bromophenyl)-1-hydroxyethyl]-2-thienyl}carbonyl)pyrimidin-4-yl]amino}-2-hydroxycyclopentyl]methyl sulfamate or [(1R,2S,4R)-4-{[5-({4-[(1S)-1-(3-bromophenyl)-1-hydroxyethyl]-2-thienyl}carbonyl)pyrimidin-4-yl]amino}-2-hydroxycyclopentyl]methyl sulfamate]	–	< 10	Percent Inhibition (Concentration 0.111 μM): 100
NS(=O)(=O)OC[C@H]1C[C@@H](Nc2ncncc2C(=O)c2cc(Cc3cccc(Cl)c3)c(Br)s2)C[C@@H]1O [I-118, {(1R,2S,4R)-4-[(5-{[5-bromo-4-(3-chlorobenzyl)-2-thienyl]carbonyl}pyrimidin-4-yl)amino]-2-hydroxycyclopentyl}methyl sulfamate]	97	< 10	–
NS(=O)(=O)OC[C@H]1C[C@@H](Nc2ncncc2C(=O)c2cc(C3SCCc4ccc(Cl)cc43)cs2)C[C@@H]1O (single isomer, unassigned) [I-320a, [(1R,2S,4R)-4-{[5-({4-[(1R)-7-chloro-3,4-dihydro-1H-isothiochromen-1-yl]-2-thienyl}carbonyl)pyrimidin-4-yl]amino}-2-hydroxycyclopentyl]methyl sulfamate or [(1R,2S,4R)-4-{[5-({4-[(1S)-7-chloro-3,4-dihydro-1H-isothiochromen-1-yl]-2-thienyl}carbonyl)pyrimidin-4-yl]amino}-2-hydroxycyclopentyl]methyl sulfamate]	–	–	Percent Inhibition [1]: 27%; IC50 [2]: 100 to 1000 nM
NS(=O)(=O)OC[C@H]1C[C@@H](Nc2ncncc2C(=O)c2ccc([C@@H]3OCCc4c(Cl)cccc43)s2)C[C@@H]1O (mixture of isomers) [I-325, [(1R,2S,4R)-4-{[5-({5-[(1R)-5-chloro-3,4-dihydro-1H-isochromen-1-yl]-2-thienyl}carbonyl)pyrimidin-4-yl]amino}-2-hydroxycyclopentyl]methyl sulfamate and [(1R,2S,4R)-4-{[5-({5-[(1S)-5-chloro-3,4-dihydro-1H-isochromen-1-yl]-2-thienyl}carbonyl)pyrimidin-4-yl]amino}-2-hydroxycyclopentyl]methyl sulfamate]	–	–	Percent Inhibition [1]: 60%; IC50 [2]: 10 to 100 nM
Cc1sc(C(=O)c2cncnc2NC2CC(O)C(COS(N)(=O)=O)C2)cc1[S+]([O-])c1ccccc1 (mixture of isomers) [I-68, [(1R,2S,4R)-2-hydroxy-4-{[5-({5-methyl-4-[(R)-phenylsulfinyl]-2-thienyl}carbonyl)pyrimidin-4-yl]amino}cyclopentyl]methyl sulfamate and [(1R,2S,4R)-2-hydroxy-4-{[5-({5-methyl-4-[(S)-phenylsulfinyl]-2-thienyl}carbonyl)pyrimidin-4-yl]amino}cyclopentyl]methyl sulfamate]	–	< 10	Percent Inhibition (Concentration 0.111 μM): 98
CN1CCc2ccc(Cl)cc2[C@@H]1c1cc(C(=O)c2cncnc2N[C@@H]2C[C@H](COS(N)(=O)=O)[C@@H](O)C2)sc1Cl (single isomer, unassigned) [I-311a, [(1R,2S,4R)-4-{[5-({5-chloro-4-[(1R)-7-chloro-2-methyl-1,2,3,4-tetrahydroisoquinolin-1-yl]-2-thienyl}carbonyl)pyrimidin-4-yl]amino}-2-hydroxycyclopentyl]methyl sulfamate or [(1R,2S,4R)-4-{[5-({5-chloro-4-[(1S)-7-chloro-2-methyl-1,2,3,4-tetrahydroisoquinolin-1-yl]-2-thienyl}carbonyl)pyrimidin-4-yl]amino}-2-hydroxycyclopentyl]methyl sulfamate]	–	–	Percent Inhibition [1]: 65%; IC50 [2]: 10 to 100 nM
NS(=O)(=O)OC[C@H]1C[C@@H](Nc2ncncc2C(=O)c2cc(Cc3cccc(Cl)c3Cl)cs2)C[C@@H]1O [I-155, {(1R,2S,4R)-4-[(5-{[4-(2,3-dichlorobenzyl)-2-thienyl]carbonyl}pyrimidin-4-yl)amino]-2-hydroxycyclopentyl}methyl sulfamate]	92	< 10	–
NS(=O)(=O)OC[C@H]1C[C@@H](Nc2ncncc2C(=O)c2cc(COc3ccccc3OC(F)(F)F)cs2)C[C@@H]1O [I-176, [(1R,2S,4R)-2-hydroxy-4-({5-[(4-{[2-(trifluoromethoxy)phenoxy]methyl}-2-thienyl)carbonyl]pyrimidin-4-yl}amino)cyclopentyl]methyl sulfamate]	87	10 to 100	–
NS(=O)(=O)OC[C@H]1C[C@@H](Nc2ncncc2C(=O)c2cc(Cc3cccc(Cl)c3)c(Cl)s2)C[C@@H]1O [I-107, {(1R,2S,4R)-4-[(5-{[5-chloro-4-(3-chlorobenzyl)-2-thienyl]carbonyl}pyrimidin-4-yl)amino]-2-hydroxycyclopentyl}methyl sulfamate]	96	< 10	–
NS(=O)(=O)OC[C@H]1C[C@@H](Nc2ncncc2C(=O)c2cc([C@@H]3OC(=O)c4ccc(Cl)cc43)c(Cl)s2)C[C@@H]1O (mixture of isomers) [I-327, [(1R,2S,4R)-4-{[5-({5-chloro-4-[(1R)-6-chloro-3-oxo-1,3-dihydro-2-benzofuran-1-yl]-2-thienyl}carbonyl)pyrimidin-4-yl]amino}-2-hydroxycyclopentyl]methyl sulfamate and [(1R,2S,4R)-4-{[5-({5-chloro-4-[(1S)-6-chloro-3-oxo-1,3-dihydro-2-benzofuran-1-yl]-2-thienyl}carbonyl)pyrimidin-4-yl]amino}-2-hydroxycyclopentyl]methyl sulfamate]	–	–	Percent Inhibition [1]: 51%; IC50 [2]: 100 to 1000 nM
NS(=O)(=O)OC[C@H]1C[C@@H](Nc2ncncc2C(=O)c2cc([C@H](O)c3cccc(Cl)c3)c(Cl)s2)C[C@@H]1O (single isomer, unassigned) [I-9a, [(1R,2S,4R)-4-{[5-({5-chloro-4-[(R)-(3-chlorophenyl)(hydroxy)methyl]-2-thienyl}carbonyl)pyrimidin-4-yl]amino}-2-hydroxycyclopentyl]methyl sulfamate or [(1R,2S,4R)-4-{[5-({5-chloro-4-[(S)-(3-chlorophenyl)(hydroxy)methyl]-2-thienyl}carbonyl)pyrimidin-4-yl]amino}-2-hydroxycyclopentyl]methyl sulfamate]	–	< 10	Percent Inhibition (Concentration 0.111 μM): 99
NS(=O)(=O)OC[C@H]1C[C@@H](Nc2ncncc2C(=O)c2cc([C@H](O)c3cccc(Cl)c3)cs2)C[C@@H]1O (mixture of isomers) [I-4, [(1R,2S,4R)-4-{[5-({4-[(R)-(3-chlorophenyl)(hydroxy)methyl]-2-thienyl}carbonyl)pyrimidin-4-yl]amino}-2-hydroxycyclopentyl]methyl sulfamate and [(1R,2S,4R)-4-{[5-({4-[(S)-(3-chlorophenyl)(hydroxy)methyl]-2-thienyl}carbonyl)pyrimidin-4-yl]amino}-2-hydroxycyclopentyl]methyl sulfamate]	–	< 10	Percent Inhibition (Concentration 0.111 μM): 99
COCc1csc(C(=O)c2cncnc2N[C@@H]2C[C@H](COS(N)(=O)=O)[C@@H](O)C2)c1 [I-217, {(1R,2S,4R)-2-Hydroxy-4-[(5-{[4-(methoxymethyl)-2-thienyl]carbonyl}pyrimidin-4-yl)amino]cyclopentyl}methyl sulfamate]	36	100 to 1000	–
Cc1oc(C(=O)c2cncnc2N[C@@H]2C[C@H](COS(N)(=O)=O)[C@@H](O)[C@@H]2F)cc1Cc1cccc(Br)c1 [I-64, [(1R,2R,3R,4R)-4-({5-[4-(3-bromobenzyl)-5-methyl-2-furoyl]pyrimidin-4-yl}amino)-3-fluoro-2-hydroxycyclopentyl]methyl sulfamate]	99	< 10	–
